Measurements: paper PMC9296036, “A peptide interfering with the dimerization of oncogenic KITENIN protein and its stability suppresses colorectal tumour progression” (Clinical and Translational Medicine, 2022)
Ends that are not written are not given here.

System: Caco2/KITENIN cells
Assay: Transwell cell invasion assay, Caco2/KITENIN cells
Assay type: cell-based
Conditions: Caco2 cells transfected with KITENIN-V5, KDIP versus scrambled peptide
Experimental: Cell invasion was measured using the transwell migration apparatus as described.[18] Briefly, cultured cells were seeded into the top of a 24‐well invasion chamber assay plate (Costar). Conditioned DMEM medium containing 10 μg/ml of fibronectin (Calbiochem) and 1% FBS was added to the bottom chamber as a chemoattractant. After 16 h (Caco2) or 48 h (HCT116) of incubation, the cells were stained. Cells at the top surface of the filters were wiped off with a cotton ball, and migrated cells on the bottom surface were counted in four random squares of .5 mm × .5 mm on each filter. The results are shown as the mean ± SEM of the number of cells per field for at least three independent experiments.
Effect of KAI1 C‐terminal interacting tetraspanin (KITENIN) dimerization‐interfering peptide (KDIP) on tumour growth and metastasis in in vivo mouse model of colorectal cancer (CRC). […] For the evaluation of metastasis, total fluorescence emitted from liver nodules expressing iRFP was measured and counted (left panel) or metastatic tumour growth was counted as nodules that migrated to the surface of the liver, and a metastatic score was obtained by multiplying it with size (middle panel). Metastatic score or total fluorescence is represented as mean ± SEM. […] The quantitative amount of each protein was measured by densitometry and is represented as an arbitrary score (mean ± SEM, n = 6). […]

Q: How did the “cellular invasion by overexpressed KITENIN (in words)” value turn out when YARVRRRGPRRWRLVSDEAV [KDIP] was run?
A: reduced
